Like-named read-outs stand apart in the source and are kept apart here.
Tests used:
[1] = system: BdC9 line of B. divergens; test: Inhibitor susceptibility dose-response assay (SYBR-Green I), B. divergens; type: cell-based, Babesia divergens; details: for fold lower IC50s against B. divergens than the Plasmodium spp.: B. divergens vs Plasmodium spp.; for IC50: read-out: IC50 (S.D.), B. divergens
Protocol: (§1) The P. falciparum strains 3D7 and Dd2 were obtained from the Walter and Eliza Hall Institute (Melbourne, Australia) and the Malaria Research and Reference Reagent Resource, respectively. […] B. divergens parasites were maintained and assayed in mixed stages without synchronization.
(§2) Ring-stage P. falciparum (1%-parasitemia starting, 1%-hematocrit) and asynchronous B.divergens (0.5%-parasitemia starting, 3%-hematocrit) were incubated with plated compounds for 72h, and ring-stage P. knowlesi (1%-parasitemia starting, 1%-hematocrit) for 48h, before lysis and staining with dye. To quantify the species-specificity of the inhibitors, we divided the range of IC50s across the 4 test lines by the average IC50 across the same lines: inhibitors with increased scores show species-specific activity and reduced scores indicate broad-spectrum, pan-species activity.

P. falciparum strain Dd2 = test: Inhibitor susceptibility dose-response assay (SYBR-Green I), P. falciparum Dd2; type: cell-based, Plasmodium falciparum; details: read-out: IC50 (S.D.), P. falciparum-Dd2
Protocol: as §1, §2

uninfected RBCs [2] = test: Cellular phosphatidylserine exposure assay (annexin V flow cytometry);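 also: flow cytometry recording 10,000 events per condition, gated on single cells, with the two experiments using blood from separate donors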
Source text: (§3) We analyzed samples using a volumetric MACSQuant Analyzer Flow Cytometer (Miltenyi Biotec), manually resuspending each row immediately prior to sample uptake. We recorded 10,000 total events for each condition at the instrument-defined low flow rate. We assessed all compounds in 2 separate experiments with blood from different donors. […] All samples were gated for single cell events.

P. knowlesi YH1 strain = test: microbe, parasite or virus in culture; type: cell-based, Plasmodium knowlesi; details: read-out: IC50 (S.D.), P. knowlesi
Protocol: as §1, §2

[3] = system: AP-1 transcription factor activation; parameters: method as in PMID 17175522; details: ref PMID 17175522; read-out: Micromolar IC50 (AP-1 transcription factor activation); cited from earlier work
in vitro = details: human
Source text: as §3

P. falciparum strain 3D7 = test: Inhibitor susceptibility dose-response assay (SYBR-Green I), P. falciparum 3D7; type: cell-based, Plasmodium falciparum; details: read-out: IC50 (S.D.), P. falciparum-3D7
Protocol: as §1, §2

AQP3 = system: AQP3; parameters: method as in PMID 22624030; details: RBC assay: AQP3 glycerol conductance ref PMID 22624030; read-out: Micromolar IC50 (RBC), AQP3 glycerol conductance; cited from earlier work
uninfected RBCs [4] = details: for hemolysis of RBCs, in words: 5x P. falciparum 3D7-IC50, 24, 48, 72h
P. falciparum (3D7) = test: Assay for inhibition of parasite proliferation via RBC-targeting (transient exposure of RBCs, wash, then infection); type: cell-based, Plasmodium falciparum
Protocol: All plates were frozen for storage before assay. For assay, duplicate plates were preincubated with donor O+ RBCs at 2% hematocrit at 37°C in 50µL for 4-5 hours. Following preincubation, one but not the other plate in each pair was washed 4X in complete RPMI to dilute inhibitor. We transferred RBCs from both washed and unwashed plates to black, clear bottom 96-well plates (Corning Cat. No. 3904) and supplemented these suspensions with MACS-purified P. falciparum (3D7) schizonts for a starting parasitemia of 0.1% - 0.25% at 1% hematocrit. Following 72h incubation in standard culture conditions, samples were processed for SYBR-Green I signal ([Mandt et al., 2019]). […] To identify host-targeting compounds, we compared DMSO-treated to inhibitor-treated samples (Students t-test, paired). We carried out the assay with 1 µM mefloquine (Sigma-Aldrich Cat. No. M2319) as a control for reversible inhibition. All assays were conducted in biological triplicate, with each experiment utilizing different donor RBCs. For select compounds, we carried out this same assay in a dose-response series (n=3 experiments). Following normalization to DMSO-controls, we assessed inhibitor activity following transient exposure of RBCs by Two-Way ANOVA tests for repeated measures (Graphpad Prism v9): high P values indicate support for the null hypothesis that dose-dependent inhibition is not modulated by dilution after exposure, consistent with a direct inhibitory effect of the compounds on RBCs persisting after transient exposure.

sickle RBCs = system: sickle RBCs; parameters: method as in PMID 33208899; details: RBC assay: PS exposure in sickle RBCs ref PMID 33208899; read-out: Micromolar IC50 (RBC), PS exposure in sickle RBCs; cited from earlier work
[5] = system: breast cancer cell line panel; parameters: method as in PMID 21159648; details: cellular proliferation ref PMID 21159648; read-out: Micromolar IC50 (breast cancer cell line panel); cited from earlier work
[6] = system: serum- or growth factor induced fibroblasts; parameters: method as in PMID 8519682; details: cellular proliferation ref PMID 8519682; read-out: Micromolar IC50 (serum- or growth factor induced fibroblasts); cited from earlier work
human epithelial cells = system: human epithelial cells; parameters: method as in PMID 17145850; details: cellular proliferation ref PMID 17145850; read-out: Micromolar IC50 (human epithelial cells); cited from earlier work
[7] = system: alloresponsive T cell proliferation; parameters: method as in PMID 24131367; details: ref PMID 24131367; read-out: Micromolar IC50 (alloresponsive T cell proliferation); cited from earlier work
[8] = biological target: ELK1-luciferase assay, HeLa; details: read-out: Micromolar IC50 (ELK1-luciferase assay, HeLa); ref PMID 15225706; cited from earlier work
HCT-116 = details: read-out: Micromolar IC50 (anchorage formation, HCT-116); ref PMID 15225706; cited from earlier work
[9] = Plasmodium falciparum, DD2, 72 h
[10] = 24h, 5x P. falciparum 3D7-IC50, % of RBCs, mean of 2 experiments
[11] = 48h, 5x P. falciparum 3D7-IC50, % of RBCs, mean of 2 experiments
[12] = uninfected RBCs (red blood cells), 1% hematocrit
[13] = Plasmodium falciparum, 3D7, 72 h
[14] = 72h, ring-stage, n=3 experiments (or 2 where indicated with *)
[15] = 72h, 5x P. falciparum 3D7-IC50, % of RBCs, mean of 2 experiments
[16] = Babesia divergens, 72h, asynchronous, n=3 experiments (or 2 where indicated with *)
[17] = Plasmodium falciparum, DD2, 72h, ring-stage, n=3 experiments (or 2 where indicated with *)
[18] = Plasmodium falciparum, 3D7, 72h, ring-stage, n=3 experiments (or 2 where indicated with *)

| SMILES | IC50 ([1]; Babesia divergens, 72 h) | IC50 (P. falciparum strain Dd2; [9]) | Phosphatidylserine exposure (%) 72h (uninfected RBCs [2]) | Phosphatidylserine exposure (%) 24h (uninfected RBCs [2]; [10]) | Phosphatidylserine exposure (%) 48h (uninfected RBCs [2]; [11]) | IC50 (P. knowlesi YH1 strain; Plasmodium knowlesi, 48 h) | hemolysis at 24 h, 5 x P. falciparum 3D7-IC50 (in vitro; [12]) | hemolysis at 48 h, 5 x P. falciparum 3D7-IC50 (in vitro; [12]) | hemolysis at 72 h, 5 x P. falciparum 3D7-IC50 (in vitro; [12]) | IC50 (P. falciparum strain 3D7; [13]) | Phosphatidylserine exposure (%) 72h (uninfected RBCs [2]; [15]) | further results |
| --- | --- | --- | --- | --- | --- | --- | --- | --- | --- | --- | --- | --- |
| COc1ccc2c(c1)c(C1=C(c3c[nH]c4ccccc34)C(=O)NC1=O)cn2CCCN(C)C [Go6983] | 0.5 µM | 2 µM | 4% | 2% | 2% | 4 µM | -7% | 5% | 12% | 2 µM |  | fold lower IC50s against B. divergens than the Plasmodium spp. [1]: at least 3 fold; IC50 [3]: 0.1 µM |
| [Cl][Au]([Cl])[Cl].c1cnc2c(c1)ccc1cccnc12 [Auphen] |  |  | 24% |  |  |  |  |  |  |  |  | IC50 ([1]; 72h, asynchronous, n=3 experiments (or 2 where indicated with *)): 2.8 µM; IC50 (AQP3): 0.8 µM; IC50 (P. falciparum strain Dd2; [14]): 0.61 µM; Phosphatidylserine exposure (%) 24h (uninfected RBCs [2]): 3%; Phosphatidylserine exposure (%) 48h (uninfected RBCs [2]): 10. %; IC50 (P. knowlesi YH1 strain; 48h, ring-stage, n=3 experiments (or 2 where indicated with *)): 2 µM; Hemolysis (%) 24h (uninfected RBCs [4]): -7%; Hemolysis (%) 48h (uninfected RBCs [4]): 5%; Hemolysis (%) 72h (uninfected RBCs [4]): 10. %; IC50 (P. falciparum strain 3D7; [14]): 1.1 µM |
| Clc1cccc(Cl)c1CSc1nnc(-c2cnccn2)s1 [Yoda1] | 1.11 µM | 6 µM |  |  | 100. % | 7 µM | 7% | 38% | 57% | 4.2 µM | 100. % | fold lower IC50s against B. divergens than the Plasmodium spp. [1]: at least 3 fold; antimalarial activity retained after transient exposure of RBCs, relative to continuous exposure to inhibitor (P. falciparum (3D7); 5x P. falciparum 3D7-IC50, RBC preincubation 4-5 hours then washed, 100% = inhibition with continuous exposure, P<0.01): ≥ 80%; inhibitory activity following transient exposure of RBCs, in words (P. falciparum (3D7); transient vs continued exposure, dose-response format where stated, n=3): statistically indistinguishable from inhibition with continued exposure; IC50 (sickle RBCs): ~2 µM; hemolysis of RBCs, in words (uninfected RBCs [4]): rapid onset of hemolysis comparable to control compound A23187 |
| O=C(O)c1ccc2c(c1)nc(Nc1cccc(Cl)c1)c1ccncc12 [CX-4945] |  |  | 3% | 2% | 2% | 9 µM |  |  |  |  |  | IC50 [1, 16]: 10 µM; IC50 [5]: 1.7 to 20 µM; IC50 (P. falciparum strain Dd2; [17]): 6 µM; PS exposure on RBCs, in words (uninfected RBCs [2]; 5x P. falciparum 3D7-IC50, 24, 48, 72h): similarly low levels; hemolysis at 24 h, 5 x P. falciparum 3D7-IC50 (in vitro): -4%; hemolysis at 48 h, 5 x P. falciparum 3D7-IC50 (in vitro): -1%; hemolysis at 72 h, 5 x P. falciparum 3D7-IC50 (in vitro): 16%; hemolysis of RBCs, in words (uninfected RBCs [4]): similarly low levels; IC50 (P. falciparum strain 3D7; [18]): 9 µM |
| COc1ccc(S(=O)(=O)N(CCO)c2ccccc2CN(C)C/C=C/c2ccc(Cl)cc2)cc1 [KN-93 Phosphate] | 6 µM | 3 µM |  | 2% | 2% | 5 µM | -4% | 7% | 16% | 3.9 µM | 4% | IC50 [6]: 6 to 12 µM |
| CN(C)CCOc1ccc(-c2nc(-c3ccncc3)c(-c3ccc4c(c3)CC/C4=N\O)[nH]2)cc1 [SB590885] | 4 µM | 1 µM |  | 2% | 2% | 1.4 µM | -4% | 4% | 11% | 0.7 µM | 4% | IC50 (human epithelial cells): 1.1 to 6.1 µM |
| CN1CCN(c2nc(C3=C(c4c[nH]c5ccccc45)C(=O)NC3=O)c3ccccc3n2)CC1 [Sotrastaurin] |  |  |  | 2% | 2% | 5 µM | -7% | 9% | 17% |  | 4% | IC50 [1, 16]: 10 µM; IC50 (P. falciparum strain Dd2; [17]): 3 µM; IC50 [7]: 0.09 µM; IC50 (P. falciparum strain 3D7; [18]): 5 µM |
| N#CC(=C(N)Sc1ccccc1N)C(C#N)=C(N)Sc1ccccc1N [U0126] | 30 µM | 3.9 µM | 9% | 2% |  | 20 µM |  |  |  | 5.3 µM |  | IC50 [8]: 0.293 µM; Phosphatidylserine exposure (%) 48h (uninfected RBCs [2]): 4%; hemolysis at 24 h, 5 x P. falciparum 3D7-IC50 (in vitro): 3%; hemolysis at 48 h, 5 x P. falciparum 3D7-IC50 (in vitro): 9%; hemolysis at 72 h, 5 x P. falciparum 3D7-IC50 (in vitro): 20%; IC50 (HCT-116): 19.4 µM |
